Results taken from patent publication US20240317725A1, “LPA1 SMALL MOLECULE ANTAGONIST” (TUOJIE BIOTECH (SHANGHAI) CO., LTD., priority 2021, published 2024).

Molecular target: T1, human lysophosphatidic acid receptor 1 (LPAR1) (Homo sapiens, UniProt Q92633)
T1 construct: host or cells: CHO-K1 (Chinese hamster ovary K1) cells, CHO-K1/LPA1R, kept under hygromycin B selection
Experiment: FLIPR test of antagonist properties: inhibition of LPA-induced intracellular calcium elevation in CHO-K1 cells expressing hLPAR1
Format: cell-based
Settings: FLIPR calcium assay, CHO-K1/LPA1R cells, LPA at EC80
Protocol: The antagonist properties of the compounds of the present disclosure were tested using the FLIPR (fluorometric imaging plate reader) method. The compounds are inhibitors of intracellular calcium elevation induced by activation of hLPARI (human lysophosphatidic acid receptor 1) expressed in CHO-K1 cells (Chinese hamster ovary K1 cells, HDB).
2.1. Reaction buffer: HBSS+20 mM HEPES+0.1% fatty acid-free BSA+0.001% F-127
2.2. 50×Red dye: (a red dye for blocking background signals in cells) prepared by: weighing out 4 g of tartrazine and 10.2 g of acid red and dissolving them in 100 mL of H2O.
2.3. Fluo-8 staining mixture: 4 mL of reaction buffer, 32 μL of fluo-8, 320 μL of 50×Red dye, and 40 μL of probenecid.
3.1. LPA: dissolved in DPBS (containing 0.1% fatty acid-free BSA) to prepare a 0.8 μM stock solution, and the solution was aliquoted and stored at −20° C.
3.2. Test compound preparation: The test compounds were dissolved in DMSO to prepare 10 mM stock solutions, and the solutions were stored at −20° C. In the experiment, the compounds were first gradient-diluted with DMSO (initial concentration of 50 μM, 3-fold dilution, 10 points) to prepare 200×compound solutions. The compound solutions were then diluted with reaction buffer to give 5×compound solutions, and the solutions were transferred to a 384-well plate (Cat. No. 6008590) using Bravo.
4.1. CHO-K1/LPA1R cells were cultured in a cell culture medium (F-12+10% FBS+400 μg/mL hygromycin B).
4.2. When the cell confluence reached 80%, the cells were digested with 0.25% pancreatin.
4.3. When the cells became round, the digestion was stopped with the medium F-12 (10% FBS), and the cells were counted. Then the cell culture was diluted with F-12 (10% FBS) to give a cell suspension with a density of 6.7×10^5 cells/mL.
4.4. The cell suspension was added to a 384-well black cell culture plate at 30 µL/well using a Multidrop auto-dispenser, and the plate was incubated in a 37° C., 5% CO2 incubator for 20-24 h. The medium was changed to a serum-free F-12 medium, and the cells were starved for 24 h.
4.5. Dose experiment for testing LPA. Gradient dilutions of 6×LPA solution (initial concentration of 60 μM, 3-fold dilution, 10 points) were prepared with reaction buffer. The medium in the 384-well black cell culture plate was discarded and changed to reaction buffer. 10 μL of 5% DMSO reaction buffer was added, and 10 μL of Fluo-8 staining mixture was then added. The plate was incubated in the dark in a 37° C., 5% CO2 incubator for 0.5 h.
4.6. FLIPR was correspondingly programmed, the 6×LPA gradient solutions were added, and readings were taken. Two-minute data were collected.
4.7. A reaction curve was obtained from the numerical values of LPA, and the concentration of LPA at EC80 was calculated. A 6×LPA solution was prepared in a 384-well plate (Cat. No. 6008590), and HPE and ZPE were added to corresponding wells. HPE (one hundred per cent effect) was 60 μM LPA, and ZPE (zero per cent effect) was reaction buffer.
4.8. Testing of compounds. The medium in the 384-well black cell culture plate was discarded and changed to reaction buffer. 10 μL of 5×compound solution was transferred using Bravo, and then 10 μL of Fluo-8 staining mixture was added immediately. The plate was incubated in the dark in a 37° C., 5% CO2 incubator for 0.5 h.
4.9. FLIPR was correspondingly programmed, the 6×LPA solution was added, and readings were taken. Two-minute data were collected.
4.10. Finally, the output fluorescence counts were analyzed, and IC50 was calculated for the compounds.

T1 sequence (Q92633 whole entry): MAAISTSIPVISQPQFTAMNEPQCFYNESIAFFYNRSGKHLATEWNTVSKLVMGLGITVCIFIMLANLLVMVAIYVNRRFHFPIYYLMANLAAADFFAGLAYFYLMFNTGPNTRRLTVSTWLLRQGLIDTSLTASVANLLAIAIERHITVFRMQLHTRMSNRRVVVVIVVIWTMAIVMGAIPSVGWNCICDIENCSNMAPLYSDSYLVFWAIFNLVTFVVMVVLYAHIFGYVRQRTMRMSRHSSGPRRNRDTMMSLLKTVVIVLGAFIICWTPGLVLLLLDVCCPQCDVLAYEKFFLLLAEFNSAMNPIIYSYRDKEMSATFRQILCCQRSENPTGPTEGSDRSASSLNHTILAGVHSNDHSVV

Row | SMILES | IC50 [nM]
1 | Cc1nc(-c2nnn(C)c2COc2nccc(C(F)(F)F)n2)ccc1OC1CC2CCC(C(=O)O)C2C1 (single isomer, unassigned) [Compound 1-P1, 5-((2-Methyl-6-(1-methyl-5-(((4-(trifluoromethyl)pyrimidin-2-yl)oxy)methyl)-1H-1,2,3-triazol-4-yl)pyridin-3-yl)oxy)octahydropentalene-1-carboxylic acid] | 13.3
2 | Cc1nc(-c2nnn(C)c2COc2nccc(C(F)(F)F)n2)ccc1OC1CC2CCC(C(=O)O)C2C1 (single isomer, unassigned) [Compound 1-P2, 5-((2-Methyl-6-(1-methyl-5-(((4-(trifluoromethyl)pyrimidin-2-yl)oxy)methyl)-1H-1,2,3-triazol-4-yl)pyridin-3-yl)oxy)octahydropentalene-1-carboxylic acid] | 659
3 | Cc1nc(-c2nnn(C)c2COc2noc(C3CC3)n2)ccc1OC1CC2CCC(C(=O)O)C2C1 (single isomer, unassigned) [Compound 2-P1, 5-((6-(5-(((5-Cyclopropyl-1,2,4-oxadiazol-3-yl)oxy)methyl)-1-methyl-1H-1,2,3-triazol-4-yl)-2-methylpyridin-3-yl)oxy)octahydropentalene-1-carboxylic acid] | 26
4 | Cc1nc(-c2nnn(C)c2COc2noc(C3CC3)n2)ccc1OC1CC2CCC(C(=O)O)C2C1 (single isomer, unassigned) [Compound 2-P2, 5-((6-(5-(((5-Cyclopropyl-1,2,4-oxadiazol-3-yl)oxy)methyl)-1-methyl-1H-1,2,3-triazol-4-yl)-2-methylpyridin-3-yl)oxy)octahydropentalene-1-carboxylic acid] | 2690
5 | COCc1ccnc(OCc2c(-c3ccc(OC4CC5CCC(C(=O)O)C5C4)c(C)n3)nnn2C)n1 (single isomer, unassigned) [Compound 3-P1, 5-((6-(5-(((4-(Methoxymethyl)pyrimidin-2-yl)oxy)methyl)-1-methyl-1H-1,2,3-triazol-4-yl)-2-methylpyridin-3-yl)oxy)octahydropentalene-1-carboxylic acid] | 8.7
6 | COCc1ccnc(OCc2c(-c3ccc(OC4CC5CCC(C(=O)O)C5C4)c(C)n3)nnn2C)n1 (single isomer, unassigned) [Compound 3-P2, 5-((6-(5-(((4-(Methoxymethyl)pyrimidin-2-yl)oxy)methyl)-1-methyl-1H-1,2,3-triazol-4-yl)-2-methylpyridin-3-yl)oxy)octahydropentalene-1-carboxylic acid] | 1380
7 | CCc1cc(OCc2c(-c3ccc(OC4CC5CCC(C(=O)O)C5C4)c(C)n3)nnn2C)ncn1 (single isomer, unassigned) [Compound 4-P1, 5-((6-(5-(((6-Ethylpyrimidin-4-yl)oxy)methyl)-1-methyl-1H-1,2,3-triazol-4-yl)-2-methylpyridin-3-yl)oxy)octahydropentalene-1-carboxylic acid] | 746
8 | CCc1cc(OCc2c(-c3ccc(OC4CC5CCC(C(=O)O)C5C4)c(C)n3)nnn2C)ncn1 (single isomer, unassigned) [Compound 4-P2, 5-((6-(5-(((6-Ethylpyrimidin-4-yl)oxy)methyl)-1-methyl-1H-1,2,3-triazol-4-yl)-2-methylpyridin-3-yl)oxy)octahydropentalene-1-carboxylic acid] | 35.8
9 | COCc1ccnc(OCc2c(-c3ccc(OC4CC5CCC(F)(C(=O)O)C5C4)c(C)n3)nnn2C)n1 (single isomer, unassigned) [Compound 5-P1, 1-Fluoro-5-((6-(5-(((4-(methoxymethyl)pyrimidin-2-yl)oxy)methyl)-1-methyl-1H-1,2,3-triazol-4-yl)-2-methylpyridin-3-yl)oxy)octahydropentalene-1-carboxylic acid] | 15.6
10 | COCc1ccnc(OCc2c(-c3ccc(OC4CC5CCC(F)(C(=O)O)C5C4)c(C)n3)nnn2C)n1 (single isomer, unassigned) [Compound 5-P2, 1-Fluoro-5-((6-(5-(((4-(methoxymethyl)pyrimidin-2-yl)oxy)methyl)-1-methyl-1H-1,2,3-triazol-4-yl)-2-methylpyridin-3-yl)oxy)octahydropentalene-1-carboxylic acid] | 917
11 | Cc1nc(-c2nnn(C)c2COc2nccc(O[C@@H]3CCOC3)n2)ccc1OC1CC2CCC(C(=O)O)C2C1 (single isomer, unassigned) [Compound 8-P1] | 28
12 | Cc1nc(-c2nnn(C)c2COc2nccc(O[C@@H]3CCOC3)n2)ccc1OC1CC2CCC(C(=O)O)C2C1 (single isomer, unassigned) [Compound 8-P2] | 502
13 | Cc1nc(-c2nnn(C)c2COc2nccc(O[C@H]3CCOC3)n2)ccc1OC1CC2CCC(C(=O)O)C2C1 (single isomer, unassigned) [Compound 9-P1] | 33.4
14 | Cc1nc(-c2nnn(C)c2COc2nccc(O[C@H]3CCOC3)n2)ccc1OC1CC2CCC(C(=O)O)C2C1 (single isomer, unassigned) [Compound 9-P2] | 853
15 | Cc1nc(-c2nnn(C)c2COc2nccc(C(C)(C)O)n2)ccc1OC1CC2CCC(C(=O)O)C2C1 (single isomer, unassigned) [Compound 10-P1, 5-((6-(5-(((4-(2-Hydroxypropan-2-yl)pyrimidin-2-yl)oxy)methyl)-1-methyl-1H-1,2,3-triazol-4-yl)-2-methylpyridin-3-yl)oxy)octahydropentalene-1-carboxylic acid] | 88.7
16 | Cc1nc(-c2nnn(C)c2COc2nccc(C(C)(C)O)n2)ccc1OC1CC2CCC(C(=O)O)C2C1 (single isomer, unassigned) [Compound 10-P2, 5-((6-(5-(((4-(2-Hydroxypropan-2-yl)pyrimidin-2-yl)oxy)methyl)-1-methyl-1H-1,2,3-triazol-4-yl)-2-methylpyridin-3-yl)oxy)octahydropentalene-1-carboxylic acid] | 1860
17 | COc1ccnc(OCc2c(-c3ccc(OC4CC5CCC(C(=O)O)C5C4)c(C)n3)nnn2C)n1 (single isomer, unassigned) [Compound 11-P1, 5-((6-(5-(((4-Methoxypyrimidin-2-yl)oxy)methyl)-1-methyl-1H-1,2,3-triazol-4-yl)-2-methylpyridin-3-yl)oxy)octahydropentalene-1-carboxylic acid] | > 10000
18 | COc1ccnc(OCc2c(-c3ccc(OC4CC5CCC(C(=O)O)C5C4)c(C)n3)nnn2C)n1 (single isomer, unassigned) [Compound 11-P2, 5-((6-(5-(((4-Methoxypyrimidin-2-yl)oxy)methyl)-1-methyl-1H-1,2,3-triazol-4-yl)-2-methylpyridin-3-yl)oxy)octahydropentalene-1-carboxylic acid] | 50.6
19 | CCOCc1ccnc(OCc2c(-c3ccc(OC4CC5CCC(C(=O)O)C5C4)c(C)n3)nnn2C)n1 (single isomer, unassigned) [Compound 13-P1, 5-((6-(5-(((4-(Ethoxymethyl)pyrimidin-2-yl)oxy)methyl)-1-methyl-1H-1,2,3-triazol-4-yl)-2-methylpyridin-3-yl)oxy)octahydropentalene-1-carboxylic acid] | 1090
20 | CCOCc1ccnc(OCc2c(-c3ccc(OC4CC5CCC(C(=O)O)C5C4)c(C)n3)nnn2C)n1 (single isomer, unassigned) [Compound 13-P2, 5-((6-(5-(((4-(Ethoxymethyl)pyrimidin-2-yl)oxy)methyl)-1-methyl-1H-1,2,3-triazol-4-yl)-2-methylpyridin-3-yl)oxy)octahydropentalene-1-carboxylic acid] | 27.9
